Data taken from patent EP4772520A1, “NOVEL PRODRUG-TYPE ANTICANCER AGENT TARGETING CANCER-SPECIFIC ENZYME ACTIVITY” (priority 2023, dated 2025).
pIC50: −log10 of the molar value.

How the values were obtained:
SHP77-luc = assay: Tumor proliferation suppression test in small cell lung cancer orthotopic model; type: in vivo, mice; settings: 40 mg/kg i.v. twice a week for 4 weeks; for tumor growth (luciferin/luciferase luminescence): n = 6, vs Vehicle
Method: The tumor proliferation suppression effect of the developed prodrugs SN38-βGal and SN38-βGlcNAc in a small cell lung cancer model was evaluated. The model was created by orthotopically transplanting SHP77-luc in which luciferase was expressed in a small cell lung cancer cell line SHP77 relative to BALB/cAJcl-nu/nu into the lung. The Vehicle (DMSO administration) group, the SN38-βGal administration group, and the SN38-βGlcNAc administration group were n = 6, respectively. The administration form was intravenous administration (i.v.), and the dose was 40 mg/kg, and administration was performed twice a week for 4 weeks. The tumor burden was evaluated by the luciferin/luciferase luminescence value.
A specific procedure of the therapeutic experiment is shown below. • (1) Model mice were created by the following procedure using 20 BALB/cAJcl-nu/nu (7 weeks old/female) mice. 150 to 200 µL of an anesthetic (a mixture of 3 kinds of Domitor + Betorphal + Mitazolam) was intraperitoneally administered to perform anesthesia. The skin of the left chest was incised, the subcutaneous tissue was detached, and then SHP77 luc cell suspension 2 × 10^7 cells/mL (50 µL, 5% Matrigel) was injected from the intercostal pleura to the left lung. The skin was sutured at 3 sites, and 150 to 200 µL of an anti-sedan (atipamezol) solution was intraperitoneally administered to check awakening of the mice. • (2) After 3 weeks, the formation of cancer was confirmed by luciferin/luciferase luminescence, and the administration of the drug was started. The drug was prepared by dissolving 200 mM of DMSO stock in PBS, and was administered from the tail vein in a total amount of 100 µL.3 mg (200 µL) of luciferin was intraperitoneally administered, and anesthetized with isoflurane. Thereafter, the luminescent value at 15 minutes after administration was measured by an in vivo imaging device. • (3) On the day of evaluation, the tumor burden was evaluated by the body weight and the luciferin/luciferase luminescence.

[1] = Single dose toxicity test 1 (intravenous); type: in vivo, Jcl: ICR mice (female); settings: for symptoms immediately after administration: 200 mg/kg intravenous, improved in several hours; for Survival rate (%) (after 10 days) / Survival rate (%) (just after administration): 200 mg/kg single intravenous administration, n=10; for LD50 at 240 h: mouse, in vivo, iv, single intravenous administration, estimated
Method: Single dose toxicity was evaluated by intravenously administering 200 mg/kg each of the novel prodrug-type anticancer agents SN38-βGal and SN38-βGlcNAc to Jcl: ICR mice (female).

[2] = tested on: lung adenocarcinoma cell A549; assay: Cytotoxicity test by MTT assay method (A549); type: cell-based; settings: for pIC50: Homo sapiens, A549, 72 h, read-out: IC50 value
human AChE = molecular target: T1, human AChE (Homo sapiens, UniProt P22303); assay: Evaluation of inhibitory activity on acetylcholinesterase (AChE); type: biochemical; settings: for AChE inhibitory activity: in the presence of 10 µM of each drug; for pIC50: read-out: IC50 value for AChE inhibition, 60 min value
T1 construct: purchased AnaSpec, Inc
T1 sequence (P22303 32-614): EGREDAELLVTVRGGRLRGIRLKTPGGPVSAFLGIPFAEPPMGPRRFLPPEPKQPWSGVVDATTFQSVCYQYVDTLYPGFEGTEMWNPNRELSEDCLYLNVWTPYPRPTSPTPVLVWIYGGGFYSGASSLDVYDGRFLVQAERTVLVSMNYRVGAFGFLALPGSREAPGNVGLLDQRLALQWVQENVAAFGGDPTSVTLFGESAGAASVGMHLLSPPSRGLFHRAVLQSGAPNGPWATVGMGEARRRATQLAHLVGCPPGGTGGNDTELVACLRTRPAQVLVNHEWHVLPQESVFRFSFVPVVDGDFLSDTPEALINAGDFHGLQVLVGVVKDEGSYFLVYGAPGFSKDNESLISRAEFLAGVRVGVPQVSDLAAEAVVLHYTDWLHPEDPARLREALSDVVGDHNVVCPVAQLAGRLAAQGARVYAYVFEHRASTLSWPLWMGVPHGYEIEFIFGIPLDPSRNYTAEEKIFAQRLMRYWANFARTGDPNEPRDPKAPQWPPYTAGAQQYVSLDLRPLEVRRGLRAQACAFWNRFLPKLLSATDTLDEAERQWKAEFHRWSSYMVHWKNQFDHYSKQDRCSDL
Method: The procedure of the specific inhibition test is shown below. • (1) A test drug at each concentration was added to a 96 well plate, and acetylcholine, an AChE substrate, and an AChE purified enzyme were added according to a protocol, using SensoLyte (registered trademark) 520 Acetylcholine esterase Activity Assay Kit Fluorometric (AnaSpec, Inc.). Neostigmine bromide known as an AChE inhibitor was used as […]. • (2) The fluorescence value at 520 nm was measured, and the IC50 value was calculated.

[3] = tested on: luciferase-expressing A549 cells; assay: Therapeutic experiment 1 in A549 lung cancer orthotopic transplantation model; type: in vivo, mice; settings: 40 mg/kg i.v., 3 times a week; for tumor suppression effect (luciferin/luciferase chemiluminescence): vs Vehicle
Method: The administration form was intravenous administration (i.v.). The dose was 40 mg/kg, and administration was performed 3 times a week for 4 times. The tumor burden was determined by evaluating the luciferin/luciferase chemiluminescence value. The endpoint was the time point of significant body weight loss (20% loss).
A specific procedure of the therapeutic experiment is shown below. • (1) Model mice were created by the following operation using BALB/cAJcl-nu/nu (7 weeks old). The skin of the chest was incised, and the skin was subcutaneously detached, then luciferase-expressing A549 cells 2 × 10^7 cells/mL (50 µL, 5% Matrigel) was injected from the intercostal pleura to the left lung. After injection, the skin was sutured. • (2) After 17 days, the formation of cancer was confirmed by luciferin/luciferase chemiluminescence, and the intravenous administration of the drug was started. The drug was prepared by dissolving a 200 mM of DMSO stock in PBS, and administered in a total amount of 100 µL. 3 mg (200 µL) of luciferin was administered by intraperitoneal administration, and anesthetized with isoflurane. Thereafter, the chemiluminescent value at 20 minutes after administration was measured by an in vivo imaging device. • (3) On the day of evaluation, the tumor burden was evaluated by the body weight and the luciferin/luciferase chemiluminescence.

[4] = tested on: lung squamous carcinomas cell H226; assay: Cytotoxicity test by MTT assay method (H226 cells); type: cell-based; settings: for cytotoxicity in the presence of inhibitor: H226; for pIC50: Homo sapiens, NCI-H226, 72 h, read-out: IC50 value
[5] = for histological findings (organ damage): summary; for biochemical test findings / blood cell test findings: vs Vehicle; for body weight loss: 40 mg/kg i.v. three times a week for three weeks, at maximum by the final day; for RETICULOCYTE COUNT: blood cell classification, Average
Method: For the Vehicle group, a corresponding amount of DMSO was administered.
After blood was collected on day 22 and then euthanized, the liver, kidney, and spleen were taken out and their weights were compared.

[6] = Single dose toxicity test 2 (intravenous); type: in vivo, Jcl: ICR mice (female); settings: for Survival rate (%) (after 14 days) / Survival rate (%) (just after administration): n=10; for symptoms immediately after administration: SN38-βGal 300 mg/kg, SN38-βGlcNAc 500 mg/kg intravenous, improved in several hours; for LD50 at 336 h: mouse, in vivo, iv, single intravenous administration, estimated
Method: Single dose toxicity was evaluated by intravenously administering the novel prodrug-type anticancer agents SN38-βGal and SN38-βGlcNAc to Jcl: ICR mice (female). […] 500 mg/kg of SN38-βGlcNAc was intravenously administered.

Row | SMILES | body weight (SHP77-luc) | tumor growth (luciferin/luciferase luminescence) (SHP77-luc) | symptoms immediately after administration [1] | Survival rate (%) (after 10 days) [1] | Survival rate (%) (just after administration) [1] | LD50 at 240 h [1] | pIC50 [2] | AChE inhibitory activity (human AChE) | pIC50 (human AChE) | body weight [3] | tumor suppression effect (luciferin/luciferase chemiluminescence) [3] | pIC50 [4] | Histological findings in kidney ([5]; 40 mg/kg i.v. repeated) | Histological findings in large intestine ([5]; 40 mg/kg i.v. repeated) | Histological findings in liver ([5]; 40 mg/kg i.v. repeated) | Histological findings in small intestine ([5]; 40 mg/kg i.v. repeated) | Histological findings in spleen ([5]; 40 mg/kg i.v. repeated) | histological findings (organ damage) ([5]; 40 mg/kg i.v. repeated) | biochemical test findings ([5]; 40 mg/kg i.v. repeated) | blood cell test findings ([5]; 40 mg/kg i.v. repeated) | other results
1 | CCc1c2c(nc3ccc(O[C@@H]4O[C@H](CO)[C@H](O)[C@H](O)[C@H]4O)cc13)-c1cc3c(c(=O)n1C2)COC(=O)[C@]3(O)CC [SN38-βGal] | no body weight loss was found during the treatment period | significant suppression of tumor growth was confirmed | reduced locomotor activity, tremor, and prone states were found in more than half of the mice in both groups | 100% | 100% | ≥ 200 mg/kg | 5.47 | did not inhibit AChE activity in this concentration range | 2.81 | the slight body weight loss was found, but it was not remarkable as in CPT-11 | tended to suppress tumor growth as in the CPT-11 administration group | 5.86 | organ damage to the kidney was not observed | the side effects were very mild as compared with CPT-11 | organ damage to the liver was not observed | the side effects were very mild as compared with CPT-11 | organ damage to the spleen was very mild | no organ damage was observed in the small intestine, large intestine, kidney, liver, and spleen | a slight decrease in AST and ALT values was observed | a slight increase in eosinophils and a decrease in basophils were estimated | cytotoxicity in the presence of inhibitor ([4]; inhibitor of β-galactosidase, N-(n-nonyl) deoxygalactonoijirimycin, 40 µM): cytotoxicity was significantly reduced; body weight loss [5]: significant body weight loss was not observed; RETICULOCYTE COUNT ([5]; 40 mg/kg i.v. repeated): 220300 µL⁻¹; Survival rate (%) (after 14 days) ([6]; 200 mg/kg intravenous): 100%; Survival rate (%) (just after administration) ([6]; 200 mg/kg intravenous): 100%; symptoms immediately after administration [6]: reduced locomotor activity and prone states were found in more than half of the mice in both groups; LD50 at 336 h [6]: ≥ 300 mg/kg
2 | CCc1c2c(nc3ccc(O[C@@H]4O[C@H](CO)[C@@H](O)[C@H](O)[C@H]4NC(C)=O)cc13)-c1cc3c(c(=O)n1C2)COC(=O)[C@]3(O)CC [SN38-βGlcNAc] | no body weight loss was found during the treatment period | significant suppression of tumor growth was confirmed | reduced locomotor activity, tremor, and prone states were found in more than half of the mice in both groups | 100% | 100% | ≥ 200 mg/kg | 5.87 | did not inhibit AChE activity in this concentration range | 2.84 | the slight body weight loss was found, but it was not remarkable as in CPT-11 | tended to suppress tumor growth as in the CPT-11 administration group | 5.82 | organ damage to the kidney was not observed | the side effects were very mild as compared with CPT-11 | organ damage to the liver was not observed | the side effects were very mild as compared with CPT-11 | organ damage to the spleen was very mild | no organ damage was observed in the small intestine, large intestine, kidney, liver, and spleen | slight increases in urea nitrogen and creatinine were observed | an increase in eosinophils and a decrease in basophils were estimated | cytotoxicity in the presence of inhibitor ([2]; A549, inhibitor PUGNAc of β-hexosaminidase): cytotoxicity was significantly reduced; cytotoxicity in the presence of inhibitor ([4]; 40 µM of inhibitor of β-hexosaminidase, PUGNAc): cytotoxicity was significantly reduced; organ weight (liver, kidney, spleen) ([5]; 40 mg/kg i.v. repeated, day 22, vs Vehicle): An increase in spleen weight was observed; body weight loss [5]: significant body weight loss was not observed; RETICULOCYTE COUNT ([5]; 40 mg/kg i.v. repeated): 242300 µL⁻¹; Survival rate (%) (after 14 days) ([6]; 200 mg/kg intravenous): 100%; Survival rate (%) (just after administration) ([6]; 200 mg/kg intravenous): 100%; Survival rate (%) (after 14 days) ([6]; 300 mg/kg intravenous): 100%; Survival rate (%) (just after administration) ([6]; 300 mg/kg intravenous): 100%; Survival rate (%) (after 14 days) ([6]; 500 mg/kg intravenous): 100%; Survival rate (%) (just after administration) ([6]; 500 mg/kg intravenous): 100%; symptoms immediately after administration [6]: reduced locomotor activity and prone states were found in more than half of the mice in both groups; LD50 at 336 h [6]: ≥ 500 mg/kg
